Results taken from patent publication US9938259B2, “Therapeutic compositions and related methods of use” (Agios Pharmaceuticals, Inc., priority 2009, dated 2018).

What was measured:
PKM2 [1] = molecular target: T1, PKM2 (Homo sapiens, UniProt P14618); assay: PKM2 Ex-Vivo Assay; format: cell-based; set-up: endogenous in cells; host or cells: A549; conditions: A549 cells treated with compound 1-4 hrs, pyruvate kinase activity in lysate; read-out: Ex-Vivo_AC50
Experimental: Described herein is a method to measure the activity of PKM2 activators in living cells and tissue. One of ordinary skill in the art would recognize and understand that this method can be adapted to high throughput format, and can accommodate a variety of cell lines and growth conditions.
In the assay, cells are treated with a compound described herein (i.e., a PKM2 activator). This compound is capable of entering the cell and binding to PKM2, inducing an activated conformation. The excess unbound compound is washed away with PBS, and the cells are lysed by snap-freezing on dry ice, followed by addition of a detergent-containing lysis buffer. The lysate, in which activated PKM2 remains intact, is removed and added to a chemical cocktail including the chemicals necessary to measure pyruvate kinase activity, in an assay that is coupled to the LDHa enzyme. The amount of pyruvate kinase activity that is measured is normalized to the total protein content in the lysate, and related to the concentration of PKM2 activator that was added to the cell. This allows an AC50 (concentration at which PKM2 is activated 50%) value to be derived. The total fold-increase in activity over mock-treated cells can also be calculated, and the “maximum level of activation” can be used to distinguish between compounds that fully activate PKM2 and compounds that can only partially activate PKM2.
• Lysis buffer* • 20 mM Tris-HCl (pH 7.5) • 150 mM NaCl • 1 mM Na2EDTA • 1 mM EGTA • 1% Triton • 2.5 mM sodium pyrophosphate • 1 mM beta-glycerophosphate • 1 mM Na3VO4 • 1 μg/ml leupeptin • 1 mM PMSF** * This lysis buffer (without PMSF) is available from Cell Signaling Technology as a 10× stock (#9803) ** 1 mM PMSF is added fresh from a 100 mM stock solution made up in isopropanol. The stock solution can be stored at 4 degrees indefinitely. Pyruvate Kinase Assay Master Mix (Same for PKM2 Activator Assay):
On the first day (day 1) cells are normally cultured in RPMI-1640 (Lonza #[…].) (with 25 mM Hepes, L-glutamine)/10% FBS. The cells are subsequently trypsinized and plated in RPMI-1640 (Lonza, #12-918F) (no phenol red, supplemented with L-glutamine @300 mg/L (Sigma, #G8540))/10% FBS at the following densities in 96 well plates:
100 uL final volume of media per well.
On the second day (Day 2), the cells should be 70-90% confluent. The cells are then treated with a compound described herein dissolved in media at final assay concentrations in a 96-well assay block (500 uL) (Costar, #3956). The final DMSO concentration is 0.1% (0.5 μL into 500 uL). Compound dilutions in DMSO are prepared so that the final DMSO concentration is constant at all compound concentrations. The media for the assay is RPMI-1640 (no phenol red, with L-glutamine @300 mg/L).
The media is then aspirated carefully from the cells using a multi-channel aspirator. 100 μL of media w/compounds is added onto cells with a multichannel pipette. Each compound concentration is then assayed in triplicate (a duplicate assay is also sufficient).
The cells are treated for 1-4 hrs (this time is determined empirically compared to DMSO reference treatment). During the cell treatment, PBS (containing calcium and magnesium) and lysis buffer is cooled on ice.
The cells are lysed and the pyruvate kinase activity is assayed. The remaining media is aspirated and the cells are washed 2× with 100 uL ice-cold PBS. The PBS is removed, and the cell plate frozen on dry ice for 5 minutes. The cells are lysed in 50 μL cold lysis buffer. Cells are subsequently kept on ice for 5 minutes, and then agitated on a plate shaker for 5 minutes (repeat 3×). Remove 10 μL for protein quantitation (or use OD280 on entire plate).
In a fresh plate, 170 uL of pyruvate kinase assay master mix was added to each well (see end for recipe). 10 uL of cell lysate was then transferred into each well. The assay was initiated upon addition of 20 uL of ADP solution. […]
Target sequence in this assay (P14618 2-531 limits assumed): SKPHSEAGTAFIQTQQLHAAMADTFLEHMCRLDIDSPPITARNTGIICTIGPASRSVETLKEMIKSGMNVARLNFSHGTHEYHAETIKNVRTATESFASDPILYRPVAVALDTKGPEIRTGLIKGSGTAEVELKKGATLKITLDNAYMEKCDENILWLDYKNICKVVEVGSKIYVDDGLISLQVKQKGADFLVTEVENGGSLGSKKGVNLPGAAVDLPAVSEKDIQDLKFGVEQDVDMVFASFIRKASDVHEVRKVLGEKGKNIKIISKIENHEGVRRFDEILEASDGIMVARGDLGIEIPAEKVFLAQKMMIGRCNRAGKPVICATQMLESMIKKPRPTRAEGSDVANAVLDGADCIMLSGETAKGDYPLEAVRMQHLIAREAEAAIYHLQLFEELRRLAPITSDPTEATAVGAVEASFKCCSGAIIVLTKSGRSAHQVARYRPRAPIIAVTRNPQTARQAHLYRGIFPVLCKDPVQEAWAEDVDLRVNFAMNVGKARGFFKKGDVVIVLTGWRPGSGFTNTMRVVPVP

PKM2 [2] = molecular target: T1, PKM2; assay: PKM2 Assay; format: biochemical; conditions: activation of PKM2 enzyme, LDH-coupled, absorbance at 340 nm; read-out: PKM2_AC50
Experimental: • PKM2 stock enzyme solution was diluted in Reaction Buffer • 2 μL of compound was added into each well first, and then 180 μL of the Reaction Mix was added. • Reaction mixture with compound (without ADP) were incubated for 30 minutes at 4° C. • Plates were re-equilibrated to room temperature prior to adding 20 μL ADP to initiate the reaction. • Reaction progress was measured as changes in absorbance at 340 nm wavelength at room temperature (25° C.) • Reaction Mix: PKM2 (50 ng/well), ADP (0.7 mM), PEP (0.15 mM), NADH (180 μM), LDH (2 units) in Reaction Buffer • Reaction Buffer: 100 mM KCl, 50 mM Tris pH 7.5, 5 mM MgCl2, 1 mM DTT, 0.03% BSA.
Target sequence in this assay (P14618 whole entry): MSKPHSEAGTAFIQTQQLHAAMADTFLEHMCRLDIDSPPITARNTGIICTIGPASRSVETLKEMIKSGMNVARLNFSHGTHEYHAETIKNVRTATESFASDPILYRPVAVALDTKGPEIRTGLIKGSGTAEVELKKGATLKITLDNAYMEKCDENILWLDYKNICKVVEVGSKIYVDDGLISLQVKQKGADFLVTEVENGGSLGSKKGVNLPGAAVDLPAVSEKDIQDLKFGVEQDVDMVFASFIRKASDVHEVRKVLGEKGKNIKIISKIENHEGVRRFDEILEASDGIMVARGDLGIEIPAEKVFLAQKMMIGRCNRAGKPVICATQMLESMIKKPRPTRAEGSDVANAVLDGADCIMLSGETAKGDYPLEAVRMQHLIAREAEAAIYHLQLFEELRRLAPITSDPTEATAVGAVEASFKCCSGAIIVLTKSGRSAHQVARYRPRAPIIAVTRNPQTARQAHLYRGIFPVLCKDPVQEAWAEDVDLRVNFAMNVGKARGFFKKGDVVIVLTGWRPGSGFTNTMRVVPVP

Structure (SMILES) | AC50 (PKM2 [1]) [nM] | AC50 (PKM2 [2]) [nM]
Cc1cc(C)cc(NS(=O)(=O)c2cncn2-c2ncc(C(F)(F)F)cc2Cl)c1 | ≤ 1000 | 
Cc1ccc(NS(=O)(=O)c2cncn2-c2ncc(C(F)(F)F)cc2Cl)cc1C | ≤ 1000 | < 100
O=S(=O)(Nc1ccc(F)c(Cl)c1)c1cncn1-c1ncccn1 [drawing 160] | ≤ 1000 | 
Cc1ccc(NS(=O)(=O)c2cccn2-c2ncc(C(F)(F)F)cc2Cl)cc1 | ≤ 1000 | < 100
O=S(=O)(Nc1ccc2c(c1)OCO2)c1cccn1-c1ncccc1Cl | ≤ 1000 | < 100
Cc1cc(NS(=O)(=O)c2cncn2-c2ncccn2)ccc1F [drawing 158] | ≤ 1000 | 100 to 500
Cc1cc(C)cc(NS(=O)(=O)c2cccn2-c2ccc(C(F)(F)F)cn2)c1 | ≤ 1000 | 100 to 500
Cc1cc(C)cc(NS(=O)(=O)c2cccn2-c2ccnc(Cl)n2)c1 | > 1000 | < 100
Cc1cc(C)cc(NS(=O)(=O)c2cccn2-c2ncccn2)c1 | ≤ 1000 | 
Cc1cc(C)cc(NS(=O)(=O)c2cccn2-c2nccc(Cl)n2)c1 | > 1000 | < 100
O=S(=O)(Nc1ccc(F)c(Cl)c1)c1cccn1-c1ccnc(Cl)n1 | > 1000 | < 100
Cc1cc(NS(=O)(=O)c2cncn2-c2ncc(C(F)(F)F)cc2Cl)ccc1F | ≤ 1000 | < 100
Cc1cccc(NS(=O)(=O)c2cncn2-c2ncc(C(F)(F)F)cc2Cl)c1 | ≤ 1000 | 
O=S(=O)(Nc1cccc(Cl)c1)c1cccn1-c1ncc(C(F)(F)F)cc1Cl | ≤ 1000 | < 100
Cc1cc(NS(=O)(=O)c2cccn2-c2ncc(C(F)(F)F)cc2Cl)ccc1Cl | ≤ 1000 | < 100
Cc1cc(NS(=O)(=O)c2cccn2-c2ncc(C(F)(F)F)cc2Cl)ccc1F | ≤ 1000 | 
Cc1cc(C)cc(NS(=O)(=O)c2cnn(-c3ncc(C(F)(F)F)cc3Cl)c2)c1 | ≤ 1000 | < 100
O=S(=O)(Nc1cccc(Cl)c1)c1cncn1-c1ncc(C(F)(F)F)cc1Cl | ≤ 1000 | 100 to 500
O=S(=O)(Nc1ccc2ccccc2c1)c1cncn1-c1ncc(C(F)(F)F)cc1Cl [drawing 128] | ≤ 1000 | < 100
Cc1cc(NS(=O)(=O)c2cncn2-c2ncc(C(F)(F)F)cc2Cl)ccc1Cl | ≤ 1000 | 100 to 500
CCc1cccc(NS(=O)(=O)c2cccn2-c2ccnc(Cl)n2)c1 | > 1000 | 100 to 500
O=S(=O)(Nc1cc(F)cc(F)c1)c1cccn1-c1ncc(C(F)(F)F)cc1Cl | ≤ 1000 | < 100
Cc1cc(NS(=O)(=O)c2cncn2-c2nccs2)ccc1F |  | 100 to 500
Cc1cc(NS(=O)(=O)c2ccnn2-c2ncc(C(F)(F)F)cc2Cl)ccc1F |  | < 100
Cc1cc(C)cc(NS(=O)(=O)c2cccn2-c2ncc(C(F)(F)F)cc2Cl)c1 | ≤ 1000 | 
COc1cc(NS(=O)(=O)c2cccn2-c2ccnc(Cl)n2)cc(C(F)(F)F)c1 |  | 500 to 1000
O=S(=O)(Nc1ccc(Cl)cc1)c1cncn1-c1ccnc(Cl)n1 |  | 1000 to 10000

Structure (SMILES) | AC50 (PKM2 [1]) [nM] | AC50 (PKM2 [2]) [nM]
O=S(=O)(Nc1ccc2ccccc2c1)c1cncn1-c1ncc(C(F)(F)F)cc1Cl [drawing 151] | ≤ 1000 | 100 to 500
O=S(=O)(Nc1ccc(F)c(Cl)c1)c1cncn1-c1ccnc(Cl)n1 |  | 100 to 500
O=S(=O)(Nc1ccc2c(c1)OCO2)c1cccn1-c1ncc(C(F)(F)F)cc1Cl | ≤ 1000 | 
O=S(=O)(Nc1cccc(C(F)(F)F)c1)c1cccn1-c1ncc(C(F)(F)F)cc1Cl |  | 100 to 500
O=S(=O)(Nc1ccc(Cl)cc1)c1cccn1-c1ncccc1Cl [drawing 87] | ≤ 1000 | 
COc1ccc(NS(=O)(=O)c2cccn2-c2ncc(C(F)(F)F)cc2Cl)cc1 |  | 100 to 500
O=S(=O)(Nc1ccc2c(c1)OCO2)c1cncn1-c1ncccn1 |  | 500 to 1000
O=S(=O)(Nc1ccc(F)cc1)c1cncn1-c1ccc(C(F)(F)F)cn1 |  | 1000 to 10000
O=S(=O)(Nc1ccc(Cl)cc1)c1cncn1-c1cnccn1 | ≤ 1000 | 1000 to 10000
O=S(=O)(Nc1cccc(Cl)c1)c1ccnn1-c1nccs1 |  | 1000 to 10000
COCCNS(=O)(=O)c1cccn1-c1ncc(C(F)(F)F)cc1Cl |  | > 10000
CCCNS(=O)(=O)c1cccn1-c1ncc(C(F)(F)F)cc1Cl |  | 1000 to 10000
Cc1ccc(NS(=O)(=O)c2cccn2-c2ncc(C(F)(F)F)cc2Cl)cc1C | ≤ 1000 | < 100
O=S(=O)(Nc1ccc(Cl)cc1)c1cccn1-c1ncc(C(F)(F)F)cc1Cl | ≤ 1000 | 
Cc1cc(NS(=O)(=O)c2cncn2-c2ncccn2)ccc1F [drawing 132] |  | < 100
Cc1cc(NS(=O)(=O)c2cccn2-c2ncccc2Cl)ccc1F [drawing 161] | ≤ 1000 | 100 to 500
O=S(=O)(Nc1cc(F)cc(F)c1)c1cncn1-c1nccc(Cl)n1 |  | 1000 to 10000
O=S(=O)(Nc1ccc(F)c(Cl)c1)c1cncn1-c1ncc(C(F)(F)F)cc1Cl | ≤ 1000 | 100 to 500
O=S(=O)(Nc1ccccc1)c1cccn1-c1ncc(C(F)(F)F)cc1Cl | ≤ 1000 | < 100
O=S(=O)(Nc1ccc(F)cc1)c1cncn1-c1ncccn1 |  | 1000 to 10000
COc1cc(NS(=O)(=O)c2cccn2-c2ncc(C(F)(F)F)cc2Cl)cc(OC)c1 |  | 100 to 500
Cc1cc(C)cc(S(=O)(=O)Nc2ccnn2-c2ncc(C(F)(F)F)cc2Cl)c1 |  | > 10000
O=S(=O)(Nc1cc(F)cc(F)c1)c1cncn1-c1ncccn1 |  | 1000 to 10000
COC(=O)c1cccc(NS(=O)(=O)c2cccn2-c2ncc(C(F)(F)F)cc2Cl)c1 |  | 1000 to 10000
O=S(=O)(Nc1cc(Cl)cc(Cl)c1)c1cncn1-c1ncc(C(F)(F)F)cc1Cl |  | 1000 to 10000
COc1cc(NS(=O)(=O)c2cncn2-c2ncc(C(F)(F)F)cc2Cl)cc(C(F)(F)F)c1 [drawing 144] |  | 500 to 1000
